Assay results published in the NIST ThermoML archive (doi:10.1021/je1013476).
Numbers after ± are expanded uncertainties.

Details: 101.33 kPa, Liquid; for viscosity: Capillary tube (Ostwald / Ubbelohde) method; for mass density: Vibrating tube method

Structure (SMILES) | viscosity (288.15 K) | mass density (288.15 K) | viscosity (293.15 K) | mass density (293.15 K) | viscosity (298.15 K) | mass density (298.15 K) | viscosity (303.15 K) | mass density (303.15 K) | viscosity (313.15 K) | mass density (313.15 K)
CCOC(=O)OCC [diethyl carbonate] | 0.864 ± 0.009 mPa·s | 980.39 ± 0.07 kg/m3 | 0.803 ± 0.008 mPa·s | 974.83 ± 0.07 kg/m3 | 0.757 ± 0.008 mPa·s | 969.15 ± 0.08 kg/m3 | 0.7 ± 0.007 mPa·s | 963.39 ± 0.08 kg/m3 | 0.616 ± 0.006 mPa·s | 952.1 ± 0.08 kg/m3
CCCCCCCCO [octan-1-ol] | 11.07 ± 0.1 mPa·s | 828.63 ± 0.12 kg/m3 | 9.161 ± 0.085 mPa·s | 825.2 ± 0.12 kg/m3 | 7.688 ± 0.072 mPa·s | 821.74 ± 0.12 kg/m3 | 6.404 ± 0.06 mPa·s | 818.23 ± 0.12 kg/m3 | 4.62 ± 0.044 mPa·s | 811.22 ± 0.12 kg/m3
CCCCCO [pentan-1-ol] | 4.682 ± 0.045 mPa·s | 818.32 ± 0.13 kg/m3 | 4.025 ± 0.039 mPa·s | 814.63 ± 0.13 kg/m3 | 3.497 ± 0.034 mPa·s | 810.96 ± 0.13 kg/m3 | 3.022 ± 0.029 mPa·s | 807.26 ± 0.13 kg/m3 | 2.312 ± 0.023 mPa·s | 799.78 ± 0.14 kg/m3

Second part, the compound after the results:

viscosity (288.15 K) | mass density (288.15 K) | viscosity (293.15 K) | mass density (293.15 K) | viscosity (298.15 K) | mass density (298.15 K) | viscosity (303.15 K) | mass density (303.15 K) | viscosity (313.15 K) | mass density (313.15 K) | Structure (SMILES)
1.313 ± 0.013 mPa·s | 793.65 ± 0.12 kg/m3 | 1.216 ± 0.012 mPa·s | 789.34 ± 0.12 kg/m3 | 1.132 ± 0.011 mPa·s | 785.07 ± 0.12 kg/m3 | 1.01 ± 0.01 mPa·s | 780.72 ± 0.12 kg/m3 | 0.824 ± 0.008 mPa·s | 771.97 ± 0.13 kg/m3 | CCO [ethanol]
2.507 ± 0.024 mPa·s | 807.55 ± 0.12 kg/m3 | 2.202 ± 0.021 mPa·s | 803.52 ± 0.13 kg/m3 | 1.973 ± 0.019 mPa·s | 799.45 ± 0.13 kg/m3 | 1.733 ± 0.017 mPa·s | 795.47 ± 0.13 kg/m3 | 1.381 ± 0.014 mPa·s | 787.28 ± 0.13 kg/m3 | CCCO [propan-1-ol]
